# From patent US11530244B2, “Cyclic polypeptides for PCSK9 inhibition” (priority 2018, dated 2022)
# Starred links: 1 amine or outer side, 2 acyl side, 3 side chain; linkers in the order of their positions; H or OH if unused. Positions of bridges follow the written chain, without caps; N, C: chain ends. Non-standard residues stand in square brackets, D forms with d. Residues, ends and D or L forms follow the SMILES beside them. Nle(6-ylidene) = O=C([C@H](CCCC=[*:3])N[*:1])[*:2]; X25 = O=C([C@H](Cc1cccc(OCC=[*:3])c1)N[*:1])[*:2]; NMeTrp(1-Me) = CN[C@@H](Cc1cn(C)c2ccccc12)C(=O)O; Trp(5-F) = N[C@@H](Cc1c[nH]c2ccc(F)cc12)C(=O)O; X10 = O=C(CCSCc1ccc2ccc(CSCCN[*:1])cc2c1)[*:2]; dTrp(5-F) = N[C@H](Cc1c[nH]c2ccc(F)cc12)C(=O)O; Trp(7-aza) = N[C@@H](Cc1c[nH]c2ncccc12)C(=O)O; X30 = COc1ccc(C[C@H](N[*:1])C(=O)[*:2])cc1Cl; mXylylene(5-F) = Fc1cc(C[*:1])cc(C[*:2])c1; X12 = O=C([C@H](CCCCC=[*:3])N[*:1])[*:2]; X19 = O=C(CCCCc1ccc(CCCCN[*:1])cc1)[*:2]; X4 = O=C(CCSCc1cccc(CSCCN[*:1])c1)[*:2]; 2Nal = N[C@@H](Cc1ccc2ccccc2c1)C(=O)O; X23 = CC[C@@]1(C(=O)[*:2])CCCN1[*:1]; dGly(cPent) = N[C@@H](C(=O)O)C1CCCC1; mXylylene = c1cc(C[*:1])cc(C[*:2])c1; AEF = NCCOc1ccc(C[C@H](N)C(=O)O)cc1; d(αMeP) = C[C@]1(C(=O)O)CCCN1; dNMeL = CN[C@H](CC(C)C)C(=O)O; Tle = CC(C)(C)[C@H](N)C(=O)O; αMeP = C[C@@]1(C(=O)O)CCCN1; dDap = NC[C@@H](N)C(=O)O; Nva = CCC[C@H](N)C(=O)O; Mpa = O=C(O)CCS
# What was measured:
# PCSK9 = PCSK9 (Homo sapiens (Human), UniProt Q8NBP7); experiment: PCSK9 Alexa FRET Standard assay (displacement of AlexaFluor647 tagged cyclic peptide Reagent A); format: binding; details: PCSK9 Alexa FRET Standard assay, 0.5 nM PCSK9, 20 nM AF cyclic peptide Reagent A; read-out: IC50
# Method in brief: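 TR-FRET displacement: 0.5 nM biotinylated PCSK9 with 1.25 nM Strep-Eu and 20 nM AlexaFluor-tagged cyclic peptide (final) in 50 mM HEPES pH 7.4, 0.15 M NaCl, 5 mM CaCl2, 0.01% BSA, 0.01% P20, ≥2 h at room temperature. IC50 from sigmoidal fit, converted to Ki via peptide KD; falling Eu counts flagged false positives.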
# [1] = biological target: human PCSK9 / human LDLR EGFa domain interaction (Homo sapiens (Human), UniProt Q8NBP7); experiment: TR-FRET assay of inhibition of the PCSK9-LDLR protein-protein interaction; format: binding; details: TR-FRET, 20 nM human PCSK9, 20 nM human LDLR EGFa domain, 2 hours room temperature; read-out: IC50
# Method in brief: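 Half-maximal inhibition was derived by 4-parameter fitting of dose-response TR-FRET data. Each well held 20 nM His-LDLR EGFa, 20 nM avitag-biotinylated PCSK9, Eu-anti-6×His and Ulight-streptavidin (5 nM each) in 50 mM HEPES, 150 mM NaCl, 5 mM CaCl2, 0.01% BSA, 0.01% Surfactant P20, incubated 2 h at room temperature.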
# Chain of human PCSK9 / human LDLR EGFa domain interaction (Q8NBP7 153-692): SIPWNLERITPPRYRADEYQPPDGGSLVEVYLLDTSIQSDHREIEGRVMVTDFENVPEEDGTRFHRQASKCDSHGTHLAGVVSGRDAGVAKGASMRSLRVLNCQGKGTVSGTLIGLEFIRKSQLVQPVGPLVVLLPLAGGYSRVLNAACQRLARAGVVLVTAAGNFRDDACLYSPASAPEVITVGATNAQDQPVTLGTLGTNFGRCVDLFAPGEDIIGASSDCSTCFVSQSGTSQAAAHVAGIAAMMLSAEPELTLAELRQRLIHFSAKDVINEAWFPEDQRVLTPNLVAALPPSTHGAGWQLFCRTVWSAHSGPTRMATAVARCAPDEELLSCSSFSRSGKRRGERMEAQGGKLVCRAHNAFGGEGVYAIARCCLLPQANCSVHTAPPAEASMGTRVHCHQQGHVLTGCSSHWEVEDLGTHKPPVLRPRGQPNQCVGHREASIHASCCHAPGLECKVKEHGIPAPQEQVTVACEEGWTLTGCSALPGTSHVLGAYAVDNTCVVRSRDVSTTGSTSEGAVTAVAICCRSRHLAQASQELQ
# Chain of human PCSK9 / human LDLR EGFa domain interaction (Q8NBP7 31-152 partner): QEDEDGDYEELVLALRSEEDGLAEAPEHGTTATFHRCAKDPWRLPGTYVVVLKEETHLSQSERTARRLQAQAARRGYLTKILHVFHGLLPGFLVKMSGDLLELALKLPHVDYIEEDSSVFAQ
# Chain of PCSK9 (Q8NBP7 153-692): as the sequence (Q8NBP7 153-692) above
compound,measurement,setting,value
COc1ccc(C[C@@H]2NC(=O)[C@H](Cc3c[nH]cn3)NC(=O)[C@H](CC(=O)O)NC(=O)[C@H](Cc3c[nH]c4ccc(F)cc34)NC(=O)[C@H](Cc3c[nH]c4ccc(F)cc34)NC(=O)[C@@H](C)NC(=O)[C@H](CCCCN)NC(=O)CCSCc3cccc(c3)CSCCNC(=O)[C@]3(C)CCCN3C2=O)cc1Cl [Compound 386] (cyclo(DH[X30][αMeP][X4]K[dA][Trp(5-F)][Trp(5-F)])),IC50,PCSK9,100 to 1000 nM
same,IC50,[1],0.1 to 100 nM
COc1ccc(C[C@@H]2NC(=O)[C@H]([C@@H](C)O)NC(=O)[C@@H]3CCCN3C(=O)[C@H](Cc3c[nH]c4ccc(F)cc34)NC(=O)[C@H](Cc3c[nH]c4ccc(F)cc34)NC(=O)[C@@H](C)NC(=O)[C@H](CCCCN)NC(=O)CCSCc3cccc(c3)CSC[C@@H](C(N)=O)NC(=O)[C@]3(C)CCCN3C2=O)cc1 [Compound 054] ([Mpa]K[dA][Trp(5-F)][Trp(5-F)]PTY(Me)[αMeP]C-NH2; linker 1-10 via mXylylene),IC50,PCSK9,100 to 1000 nM
same,IC50,[1],0.1 to 100 nM
C[C@@]12CCCN1C(=O)[C@H](Cc1c[nH]c3ncccc13)NC(=O)[C@H](Cc1cnc[nH]1)NC(=O)[C@H](CC(=O)O)NC(=O)[C@H](Cc1c[nH]c3ccc(F)cc13)NC(=O)[C@H](Cc1c[nH]c3ccc(F)cc13)NC(=O)CNC(=O)[C@H](CCCCN)NC(=O)CCSCc1cccc(c1)CSC[C@@H](C(N)=O)NC2=O [Compound 360] ([Mpa]KG[Trp(5-F)][Trp(5-F)]DH[Trp(7-aza)][αMeP]C-NH2; linker 1-10 via mXylylene),IC50,PCSK9,100 to 1000 nM
same,IC50,[1],0.1 to 100 nM
CC(=O)N[C@H]1CC(=O)NCCOc2ccc(cc2)C[C@@H](C(N)=O)NC(=O)[C@]2(C)CCCN2C(=O)[C@H](Cc2ccc(O)cc2)NC(=O)[C@H](Cc2c[nH]cn2)NC(=O)[C@H](CC(=O)O)NC(=O)[C@H](Cc2c[nH]c3ccc(F)cc23)NC(=O)[C@H](Cc2c[nH]c3ccc(F)cc23)NC(=O)CNC(=O)[C@H](C)NC1=O [Compound 310] (Ac-DAG[Trp(5-F)][Trp(5-F)]DHY[αMeP][AEF]-NH2; lactam 1-10),IC50,PCSK9,1000 to 12100 nM
same,IC50,[1],1000 to 12100 nM
CCC[C@@H]1NC(=O)CCSCc2cccc(c2)CSC[C@@H](C(N)=O)NC(=O)[C@@H]2CCCN2C(=O)[C@H](Cc2ccc(OC)cc2)NC(=O)[C@H]([C@@H](C)OC)NC(=O)[C@@H]2CCCN2C(=O)[C@H](Cc2cn(C)c3ccccc23)N(C)C(=O)[C@H](Cc2ccc3ccccc3c2)NC(=O)[C@@H](CC(C)C)N(C)C1=O [Compound 038] ([Mpa][Nva][dNMeL][2Nal][NMeTrp(1-Me)]PT(Me)Y(Me)PC-NH2; linker 1-10 via mXylylene),IC50,PCSK9,0.11 to 100 nM
same,IC50,[1],0.1 to 100 nM
CC[C@@]12CCCN1C(=O)[C@H](Cc1ccc(O)cc1)NC(=O)[C@H]([C@@H](C)O)NC(=O)[C@@H]1CCCN1C(=O)[C@H](Cc1c[nH]c3ccc(F)cc13)NC(=O)[C@H](Cc1c[nH]c3ccc(F)cc13)NC(=O)CNC(=O)[C@H](CCCCN)NC(=O)CCSCc1cccc(c1)CSC[C@@H](C(N)=O)NC2=O [Compound 045] ([Mpa]KG[Trp(5-F)][Trp(5-F)]PTY[X23]C-NH2; linker 1-10 via mXylylene),IC50,PCSK9,1000 to 12100 nM
same,IC50,[1],1000 to 12100 nM
C[C@@H]1NC(=O)CCCCc2ccc(cc2)CCCCNC(=O)C[C@@H](C(=O)N[C@@H](Cc2cnc[nH]2)C(=O)N[C@@H](Cc2ccc(O)cc2)C(=O)N2CCC[C@H]2C(N)=O)NC(=O)[C@H](Cc2c[nH]c3ccc(F)cc23)NC(=O)[C@H](Cc2c[nH]c3ccc(F)cc23)NC(=O)CNC1=O [Compound 330] ([X19]AG[Trp(5-F)][Trp(5-F)]DHYP-NH2; lactam N-6),IC50,PCSK9,1000 to 12100 nM
same,IC50,[1],100 to 1000 nM
COc1ccc(C[C@@H]2NC(=O)[C@H]([C@@H](C)O)NC(=O)[C@@H]3CCC/C=C/COc4cccc(c4)C[C@H](NC(=O)[C@@H](C)NC(=O)[C@H](CCCCN)NC(=O)CCSCc4cccc(c4)CSCCNC(=O)[C@]4(C)CCCN4C2=O)C(=O)N[C@@H](Cc2c[nH]c4ccc(F)cc24)C(=O)N3)cc1 [Compound 494] (cyclo(K[dA][X25][Trp(5-F)][Nle(6-ylidene)]TY(Me)[αMeP][X4]); staple (E) 3-5),IC50,PCSK9,1000 to 12100 nM
same,IC50,[1],1000 to 12100 nM
COc1ccc(C[C@@H]2NC(=O)[C@H](Cc3cnc[nH]3)NC(=O)[C@H](CC(=O)O)NC(=O)[C@H](Cc3c[nH]c4ccc(F)cc34)NC(=O)[C@H](Cc3c[nH]c4ccc(F)cc34)NC(=O)[C@@H](C)NC(=O)[C@H](CCCCN)NC(=O)CCSCc3ccc4ccc(cc4c3)CSCCNC(=O)[C@]3(C)CCCN3C2=O)cc1 [Compound 405] (cyclo(DHY(Me)[αMeP][X10]K[dA][Trp(5-F)][Trp(5-F)])),IC50,PCSK9,100 to 1000 nM
same,IC50,[1],0.1 to 100 nM
COc1ccc(C[C@@H]2NC(=O)[C@H](Cc3cnc[nH]3)NC(=O)[C@H](CC(=O)O)NC(=O)[C@H](Cc3c[nH]c4ccc(F)cc34)NC(=O)[C@H](Cc3c[nH]c4ccc(F)cc34)NC(=O)[C@@H](C)NC(=O)[C@H](NC(C)=O)Cc3cn(nn3)-c3ccc(cc3)C[C@@H](C(N)=O)NC(=O)[C@]3(C)CCCN3C2=O)cc1 [Compound 381],IC50,PCSK9,1000 to 12100 nM
same,IC50,[1],100 to 1000 nM
C[C@@]12CCCN1C(=O)[C@H](Cc1ccc(O)cc1)NC(=O)[C@H](Cc1cnc[nH]1)NC(=O)[C@H](CC(=O)O)NC(=O)[C@H](Cc1c[nH]c3ccc(F)cc13)NC(=O)[C@H](Cc1c[nH]c3ccc(F)cc13)NC(=O)CNC(=O)[C@@H](CN)NC(=O)CCSCc1cccc(c1)CSC[C@@H](C(N)=O)NC2=O [Compound 354] ([Mpa][dDap]G[Trp(5-F)][Trp(5-F)]DHY[αMeP]C-NH2; linker 1-10 via mXylylene),IC50,PCSK9,21000 to 50000 nM
same,IC50,[1],21000 to 50000 nM
COc1ccc(C[C@H]2NC(=O)[C@@H](Cc3c[nH]cn3)NC(=O)[C@@H](CC(=O)O)NC(=O)[C@@H](Cc3c[nH]c4ccc(F)cc34)NC(=O)[C@@H](Cc3c[nH]c4ccc(F)cc34)NC(=O)[C@H](C(C)(C)C)NC(=O)[C@@H](CCCCN)NC(=O)CCSCc3cccc(c3)CSCCNC(=O)[C@@]3(C)CCCN3C2=O)cc1 [Compound 362] (cyclo([Tle][dTrp(5-F)][dTrp(5-F)][dD][dH][dY](Me)[d(αMeP)][X4][dK])),IC50,PCSK9,0.11 to 100 nM
same,IC50,[1],0.1 to 100 nM
COc1ccc(C[C@@H]2NC(=O)[C@H]([C@@H](C)O)NC(=O)[C@@H]3CCCC/C=C\CCCC[C@H](NC(=O)[C@@H](C)NC(=O)[C@H](C)NC(=O)CCSCc4cccc(c4)CSCCNC(=O)[C@]4(C)CCCN4C2=O)C(=O)N[C@@H](Cc2c[nH]c4ccc(F)cc24)C(=O)N3)cc1 [Compound 495] (cyclo(A[dA][X12][Trp(5-F)][X12]TY(Me)[αMeP][X4]); staple (Z) 3-5),IC50,PCSK9,0.11 to 100 nM
same,IC50,[1],100 to 1000 nM
COc1ccc(C[C@@H]2NC(=O)[C@H](Cc3cnc[nH]3)NC(=O)[C@H](CC(=O)O)NC(=O)[C@H](Cc3c[nH]c4ccc(F)cc34)NC(=O)[C@H](Cc3c[nH]c4ccc(F)cc34)NC(=O)[C@@H](C)NC(=O)[C@H](CCCCN)NC(=O)CCSCc3cc(F)cc(c3)CSC[C@@H](C(N)=O)NC(=O)[C@]3(C)CCCN3C2=O)cc1 [Compound 338] ([Mpa]K[dA][Trp(5-F)][Trp(5-F)]DHY(Me)[αMeP]C-NH2; linker 1-10 via mXylylene(5-F)),IC50,PCSK9,1000 to 12100 nM
same,IC50,[1],1000 to 12100 nM
COc1ccc(C[C@@H]2NC(=O)[C@H](Cc3c[nH]cn3)NC(=O)[C@H](CC(=O)O)NC(=O)[C@H](Cc3c[nH]c4ccc(F)cc34)NC(=O)[C@H](Cc3c[nH]c4ccc(F)cc34)NC(=O)[C@@H](C3CCCC3)NC(=O)[C@H](CCCCN)NC(=O)CCSCc3cccc(c3)CSCCNC(=O)[C@]3(C)CCCN3C2=O)cc1 [Compound 344] (cyclo(DHY(Me)[αMeP][X4]K[dGly(cPent)][Trp(5-F)][Trp(5-F)])),IC50,PCSK9,21000 to 50000 nM
same,IC50,[1],21000 to 50000 nM
